Structures are written as SMILES.

Experimental findings from patent US20250179103A1, “6-OXODECAHYDROPYRROLO[1,2-A][1,5]DIAZOCINE AND 6-OXODECAHYDRO-4H-PYRROLO[2,1-D][1,5]THIAZOCINE DERIVATIVES AS STAT3 AND STAT6 MODULATORS FOR THE TREATMENT OF CANCER AND INFLAMMATORY CONDITIONS” (Recludix Pharma, Inc., priority 2022, published 2025) are described below.

For assay [1], the system named is pY705-STAT3 in Peripheral Blood Mononuclear Cells (PBMC). The experiment in a line: MSD-pSTAT-PBMC Assay (pSTAT3, IL-6 stimulated). Conditions: compound 3 hrs, then 10 ng/mL IL-6 for 10 min. The format is cell-based, Human. The essentials:
(§1)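 Human PBMCs were preincubated 3 h with compound, then stimulated 10 min with 10 ng/mL IL-6 (pY705-STAT3) or 1 ng/mL IL-4 (pY641-STAT6). Lysates were read by MSD sandwich immunoassay, capturing total STAT and detecting phospho-STAT. Signal was unstimulated-subtracted and DMSO-normalised, with variable-slope IC50 binned A–D.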

For assay [2], the system named is pY641-STAT6 in Peripheral Blood Mononuclear Cells (PBMC). Kind of assay: MSD-pSTAT-PBMC Assay (pSTAT6, IL-4 stimulated). The format is cell-based, Human. The following applies: compound 3 hrs, then 1 ng/mL IL-4 for 10 min. The essentials:
as §1

As for `CC(=O)N1CC[C@H]2CC[C@@H](C(=O)N3C[C@@H](C#N)[C@H](c4ccccc4)C3)N2C(=O)[C@@H](NC(=O)c2cc3cc(C(F)(F)P(=O)(OCOC(=O)OC(C)C)OCOC(=O)OC(C)C)ccc3s2)C1` (single isomer, unassigned) [Compound 282, ((((2-(((5S,8S, 10aR)-3-acetyl-8-((3S,4R or 3R,4S)-3-cyano-4-phenyl-pyrrolidine-1-carbonyl)-6-oxodecahydro-pyrrolo[1,2-a][1,5]diazocin-5-yl)carbamoyl)benzo[b]thiophen-5-yl)difluoro-methyl)phos-phoryl)bis(oxy)) bis(methylene) diisopropyl bis(carbonate)], the half-maximal inhibitory concentration (IC50) in assay [1] (Homo sapiens) is 1000 to 3000 nM; in assay [2] (Homo sapiens), no more than 100 nM.

On to `CC(C)(C)C(=O)OCOP(=O)(OCOC(=O)C(C)(C)C)C(F)(F)c1ccc2ccc(C(=O)NC3CN(CC(F)F)CCC4CCC(C(=O)N5CCC(c6ccccc6)C(C#N)C5)N4C3=O)cc2c1` [Compound 345, ((((7-(((5S,8S,10aR)-8-((rel-trans)-3-cyano-4-phenylpiperidine-1-carbonyl)-3-(2,2-difluoroethyl)-6-oxodecahydropyrrolo[1,2-a][1,5]diazocin-5-yl)carbamoyl)naphthalen-2-yl)difluoromethyl)phosphoryl)bis(oxy)) bis(methylene) bis(2,2-dimethylpropanoate)], for which the IC50 in assay [1] was in the range of 1000 to 3000 nM; in assay [2], 100 to 1000 nM.

Broadly, the IC50 is the point on the concentration scale where inhibition reaches its midpoint. The low end stands for inhibition by little substance, the high end for a need for much substance.
